This note sets out measurements from patent publication US20260364088A1, “TASL MIMICKING MOLECULES AND APPLICATIONS THEREOF” (CEMM - FORSCHUNGSZENTRUM FÜR MOLEKULARE MEDIZIN GMBH, priority 2022, published 2026).

pIC50: −log10 of the molar value. Read-outs that look alike come from different tables or passages of the source.

For one experiment, the target named is T1, THP1 dual cell (Homo sapiens, UniProt Q8N697).
T1 construct: R848 (TLR7/8)-stimulated ISRE reporter
Put plainly: THP1 DUAL/ISRE cell reporter assay (R848 stimulated). In kind it is cell-based. As to the method: CAL-1, THP1 or human primary cells were incubated with dTASL1 and other identified compounds (or the corresponding volume of DMSO vehicle) for 24 h or 48 h at the indicated concentration and subsequently stimulated with R848 (5 μg/ml) for the indicated time. Supernatant or cells were recovered for ELISA, SDS-PAGE or microscopy-based analysis.
THP1 DUAL cells (1×10^5 cells per 96 well) were incubated with compounds for 24 h or 48 h, and subsequently stimulated for 20 h as indicated. Cell culture supernatant were collected, cleared of residual cells by centrifugation and analyzed for NF-κB and ISRE reporter activity according to the manufacturer's instructions. For experiments in 384-well format, compounds were pre-plated at defined concentrations and THP1 dual cells were added at 800 k/well concentration in […]. After incubation for 24 h or 48 h cells were stimulated with […] of a 25 μg/ml stock of R848 or 0.5 μg/ml Pam3CKS4 5× stocks as indicated for 20 h and detected by directly adding Quanti-Luc Plus (Invivogen) solution to the plates, according to the manufacturer's instructions and without adding stabilizer solution. Quanti-Blue detection was carried out according to the manifacturers instructions, with QB reagent and buffer (Invivogen) dissolved in 30 ml water, instead of the 100 ml used for standard detection.
Based on potency and kinetics, the compound C5 was selected for further characterization (FIG. 2E). C5 is an elongated molecule comprised of an aromatic 2-(4-ethoxyphenyl)-quinoline moiety followed by an amide bond and an aliphatic 2-methyl-1-propylpiperidine (FIG. 2F). To validate the scaffold and explore the chemical space at the aliphatic end of the compound, five analogues and an independently synthesized batch of C5 were obtained. […] Therefore the C5 compound was selected, which was named dTASL1 as its activity leads to TASL degradation, to assess effects on TLR7/8-induced signaling and responses.
The following compounds were assayed for their activity in the degradation assay (THP1 DUAL/ISRE cell reporter assay), as described herein: […]

The target in the next experiment is T2, SLC15A4 (Homo sapiens, UniProt Q8N697).
T2 construct: transient TASL-V5 N-terminal fragments 1-94 and 1-193 (C-terminal V5) as partner
Description: Competition assay with V5-tagged N-terminal TASL fragments (V5 immunofluorescence). In kind it is cell-based. The following applies: TASL-V5 fragments of first 94 and 193 amino acids; 10 mM dTASL1, 24 h. As to the method:
For staining of fixed cells, 12 k cells/well were seeded in tissue culture-treated PhenoPlate 96-well plates (PerkinElmer) and incubated over-night. Cells were transfected with TASL-V5 fragments the next day and subsequently TASL-V5 expression was induced by addition of 1 μg/ml doxycycline and […] dTASL1 or an equivalent volume of DMSO respectively. Compound and doxycycline were added at the same time, to allow dTASL1 to occupy SLC15A4 binding sites in advance of TASL binding. Cells were fixed after 24 h of incubation for 10 min with 4% formaldehyde in PBS and permeabilized and blocked with 0.2% Triton X-100 (Sigma) and 5% FBS in PBS for 1 h. Cells were stained overnight at 4 °C with a mouse anti V5 primary antibody (Invitrogen) in blocking solution. Cells were washed 3 time in PBS and stained for 1.5 h with fluorescently labelled goat anti mouse Alexa-568 (Invitrogen) secondary antibody. […]
Encouraged by the fact that the chemical entity of the present invention was showing the desired behavior and specificity profile, it became important to better clarify the molecular basis of this uncommon mechanism of action, i.e interference with a highly specific protein interaction leading to degradation of a single complex component. The effect of dTASL1 on complex assembly was first monitored. […]

The test system of a further experiment is IRF5. Put plainly: IRF5 nuclear translocation in CD19^+ B cells of PBMCs (confocal microscopy). The experiment is classed as cell-based, human. To be noted: primary B cells, dTASL1 10 µM 24 h, R848 (5 μg/ml) 3 h, n=7. As to the method:
PBMCs were treated for 24 h with DMSO or dTASL1 (10 µM) and thereafter stimulated with 5 μg/ml R848 (Invivogen) for three hours or left unstimulated. Cells were harvested and stained for 30 minutes with PE-conjugated anti-CD19 antibodies (BioLegend, #302254, 1:200 in PBS/2% FBS) on ice and fixed with 4% formaldehyde in PBS for 15 minutes at RT. Permeabilization and staining for NF-κB p65 and IRF5 and counterstaining was performed as for CAL-1 and cells were seeded at a concentration of 3×10^4 cells/well onto 384-well imaging plates. Images were acquired on a PerkinElmer Opera Phenix HCS spinning disc confocal microscope and analyzed as described above with the additional identification of B cells based on CD19 membrane staining intensity. This protocol also applies to the cells obtained from SLE patients.
Given that all evidence obtained seems to confirm the mechanistic precision of this chemical agent, any further consideration of assessing the therapeutic potential required evidence for activity in human primary cells relevant for SLE pathophysiology. The effect of dTASL1 in human peripheral blood mononuclear cells (PBMCs) was assessed. […] It has been previously shown that the SLC15A4-TASL module was required for TNF production in primary human monocytes. […] The impact of dTASL1 on TLR7/8 responses by directly monitoring IRF5 by confocal microscopy in B cells was assessed.

T1 sequence (Q8N697 whole entry): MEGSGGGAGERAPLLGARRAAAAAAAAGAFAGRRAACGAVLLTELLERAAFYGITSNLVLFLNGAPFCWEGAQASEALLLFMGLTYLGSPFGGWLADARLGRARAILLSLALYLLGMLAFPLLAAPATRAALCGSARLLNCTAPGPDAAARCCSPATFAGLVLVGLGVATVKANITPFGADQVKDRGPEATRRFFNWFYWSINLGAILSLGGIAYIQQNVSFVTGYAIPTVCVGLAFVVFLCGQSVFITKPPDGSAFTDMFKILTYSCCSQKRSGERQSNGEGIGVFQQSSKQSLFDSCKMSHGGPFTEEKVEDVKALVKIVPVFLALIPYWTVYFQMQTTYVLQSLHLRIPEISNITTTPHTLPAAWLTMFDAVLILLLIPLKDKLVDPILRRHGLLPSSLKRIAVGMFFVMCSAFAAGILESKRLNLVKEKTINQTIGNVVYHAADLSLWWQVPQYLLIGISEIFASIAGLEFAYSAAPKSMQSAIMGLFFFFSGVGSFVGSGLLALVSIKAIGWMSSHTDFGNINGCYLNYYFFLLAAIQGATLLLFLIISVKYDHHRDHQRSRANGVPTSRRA
T2 sequence (Q8N697 whole entry, the tested form may be a part): as the sequence (Q8N697 whole entry) above

For the molecule `CCOc1ccc(-c2cc(C(=O)NCCCN3CCCCC3C)c3ccccc3n2)cc1` (stereo not shown) [dTASL1, 2-(4-ethoxyphenyl)-N-(3-(2-methylpiperidin-1-yl)propyl) quinoline-4-carboxamide], the pIC50 on THP1 dual cell (24 h treatment before R848 stimulation, read-out: IC50 24 h) was 5.65; on THP1 dual cell (48 h treatment before R848 stimulation, read-out: IC50 48 h), 6.03. Moreover, the “SLC15A4-localized V5 signal” value on SLC15A4 is given as “reduce SLC15A4-localized V5 signal for both short TASL portions”. In addition, in the experiment on IRF5, the IRF5 nuclear translocation result is “significantly reduced IRF5 nuclear translocation”.
